# Data reported in patent US6518243B1, “Desleucyl glycopeptide antibiotics and methods of making same” (Trustees of Princeton University, priority 1999, dated 2003).
# Tested on: E. faecalis (CL 4877)
# Assay: Zone of inhibition screen, 96 well agar array format
# Assay type: cell-based
# Design: scale not given here
# Details: zone of inhibition relative to 1 mg/ml stock solution of p-chlorobiphenylvancomycin
# Description: The antibacterial activity of each of the compounds against the bacterial strains E. faceium (ATCC 49624), S. epidermidis (ATCC 12228), S. aureus (ATCC 29213), E. faecalis (CL 4877) and E. faecalis (ATCC 292121) was tested. Each of the compounds was screened in a 96 will agar array format.
row,Structure (SMILES),"zone score, E. faecalis CL 4877"
1,CC1OC(OC2C(Oc3c4cc5cc3Oc3ccc(cc3Cl)C(O)C3NC(=O)C(NC(=O)C5NC(=O)C(CC(N)=O)NC(=O)C(NC(=O)c5nccnc5N)C(O)c5ccc(c(Cl)c5)O4)c4ccc(O)c(c4)-c4c(O)cc(O)cc4C(C(=O)O)NC3=O)OC(CO)C(O)C2O)CC(C)(NCc2ccc(-c3ccc(Cl)cc3)cc2)C1O (stereo not drawn) [Compound 105],2
2,CC(=O)NC(CCCNC(=N)N)C(=O)NC1C(=O)NC(CC(N)=O)C(=O)NC2C(=O)NC3C(=O)NC(C(=O)NC(C(=O)O)c4cc(O)cc(O)c4-c4cc3ccc4O)C(O)c3ccc(c(Cl)c3)Oc3cc2cc(c3OC2OC(CO)C(O)C(O)C2OC2CC(C)(NCc3ccc(-c4ccc(Cl)cc4)cc3)C(O)C(C)O2)Oc2ccc(cc2Cl)C1O (stereo not drawn) [Compound 111],2
3,CC(=O)NC(CC(N)=O)C(=O)NC1C(=O)NC(CC(N)=O)C(=O)NC2C(=O)NC3C(=O)NC(C(=O)NC(C(=O)O)c4cc(O)cc(O)c4-c4cc3ccc4O)C(O)c3ccc(c(Cl)c3)Oc3cc2cc(c3OC2OC(CO)C(O)C(O)C2OC2CC(C)(NCc3ccc(-c4ccc(Cl)cc4)cc3)C(O)C(C)O2)Oc2ccc(cc2Cl)C1O (stereo not drawn) [Compound 113],2
4,CC(=O)NC(C(=O)NC1C(=O)NC(CC(N)=O)C(=O)NC2C(=O)NC3C(=O)NC(C(=O)NC(C(=O)O)c4cc(O)cc(O)c4-c4cc3ccc4O)C(O)c3ccc(c(Cl)c3)Oc3cc2cc(c3OC2OC(CO)C(O)C(O)C2OC2CC(C)(NCc3ccc(-c4ccc(Cl)cc4)cc3)C(O)C(C)O2)Oc2ccc(cc2Cl)C1O)C(C)O (stereo not drawn) [Compound 125],2
5,CC1OC(OC2C(Oc3c4cc5cc3Oc3ccc(cc3Cl)C(O)C3NC(=O)C(NC(=O)C5NC(=O)C(CC(N)=O)NC(=O)C(NC(=O)C(NC(N)=O)NC(N)=O)C(O)c5ccc(c(Cl)c5)O4)c4ccc(O)c(c4)-c4c(O)cc(O)cc4C(C(=O)O)NC3=O)OC(CO)C(O)C2O)CC(C)(NCc2ccc(-c3ccc(Cl)cc3)cc2)C1O (stereo not drawn) [Compound 126],2
6,CC1OC(OC2C(Oc3c4cc5cc3Oc3ccc(cc3Cl)C(O)C(NC(=O)C(O)C(O)C(O)CO)C(=O)NC(CC(N)=O)C(=O)NC5C(=O)NC3C(=O)NC(C(=O)NC(C(=O)O)c5cc(O)cc(O)c5-c5cc3ccc5O)C(O)c3ccc(c(Cl)c3)O4)OC(CO)C(O)C2O)CC(C)(NCc2ccc(-c3ccc(Cl)cc3)cc2)C1O (stereo not drawn) [Compound 127],2
7,CC1OC(OC2C(Oc3c4cc5cc3Oc3ccc(cc3Cl)C(O)C3NC(=O)C(NC(=O)C5NC(=O)C(CC(N)=O)NC(=O)C(NC(=O)C(CC(N)=O)NC(=O)OC(C)(C)C)C(O)c5ccc(c(Cl)c5)O4)c4ccc(O)c(c4)-c4c(O)cc(O)cc4C(C(=O)O)NC3=O)OC(CO)C(O)C2O)CC(C)(NCc2ccc(-c3ccc(Cl)cc3)cc2)C1O (stereo not drawn) [Compound 133],2
8,CC1OC(OC2C(Oc3c4cc5cc3Oc3ccc(cc3Cl)C(O)C3NC(=O)C(NC(=O)C5NC(=O)C(CC(N)=O)NC(=O)C(NC(=O)C(CCCNC(=N)N)NC(=O)CNC(=O)OC(C)(C)C)C(O)c5ccc(c(Cl)c5)O4)c4ccc(O)c(c4)-c4c(O)cc(O)cc4C(C(=O)O)NC3=O)OC(CO)C(O)C2O)CC(C)(NCc2ccc(-c3ccc(Cl)cc3)cc2)C1O (stereo not drawn) [Compound 138],2
9,CC1OC(OC2C(Oc3c4cc5cc3Oc3ccc(cc3Cl)C(O)C3NC(=O)C(NC(=O)C5NC(=O)C(CC(N)=O)NC(=O)C(NC(=O)CNC(=O)CNC(=O)OC(C)(C)C)C(O)c5ccc(c(Cl)c5)O4)c4ccc(O)c(c4)-c4c(O)cc(O)cc4C(C(=O)O)NC3=O)OC(CO)C(O)C2O)CC(C)(NCc2ccc(-c3ccc(Cl)cc3)cc2)C1O (stereo not drawn) [Compound 140],2
10,CC1OC(OC2C(Oc3c4cc5cc3Oc3ccc(cc3Cl)C(O)C3NC(=O)C(NC(=O)C5NC(=O)C(CC(N)=O)NC(=O)C(NC(=O)CC5OCC6CN7CC8C9=CC(=O)C(=O)C([N+](=O)[O-])=C9NC8C5C6CC7C)C(O)c5ccc(c(Cl)c5)O4)c4ccc(O)c(c4)-c4c(O)cc(O)cc4C(C(=O)O)NC3=O)OC(CO)C(O)C2O)CC(C)(NCc2ccc(-c3ccc(Cl)cc3)cc2)C1O (stereo not drawn) [Compound 144],2
11,CC1OC(OC2C(Oc3c4cc5cc3Oc3ccc(cc3Cl)C(O)C3NC(=O)C(NC(=O)C5NC(=O)C(CC(N)=O)NC(=O)C(NC(=O)CN(C)C(=N)N)C(O)c5ccc(c(Cl)c5)O4)c4ccc(O)c(c4)-c4c(O)cc(O)cc4C(C(=O)O)NC3=O)OC(CO)C(O)C2O)CC(C)(NCc2ccc(-c3ccc(Cl)cc3)cc2)C1O (stereo not drawn) [Compound 145],2
12,CC1OC(OC2C(Oc3c4cc5cc3Oc3ccc(cc3Cl)C(O)C(NC(=O)C3(O)CC(O)C(O)C(O)C3)C(=O)NC(CC(N)=O)C(=O)NC5C(=O)NC3C(=O)NC(C(=O)NC(C(=O)O)c5cc(O)cc(O)c5-c5cc3ccc5O)C(O)c3ccc(c(Cl)c3)O4)OC(CO)C(O)C2O)CC(C)(NCc2ccc(-c3ccc(Cl)cc3)cc2)C1O (stereo not drawn) [Compound 146],2
13,CC1OC(OC2C(Oc3c4cc5cc3Oc3ccc(cc3Cl)C(O)C(NC(=O)C(O)C3OC(=O)C(O)C3O)C(=O)NC(CC(N)=O)C(=O)NC5C(=O)NC3C(=O)NC(C(=O)NC(C(=O)O)c5cc(O)cc(O)c5-c5cc3ccc5O)C(O)c3ccc(c(Cl)c3)O4)OC(CO)C(O)C2O)CC(C)(NCc2ccc(-c3ccc(Cl)cc3)cc2)C1O (stereo not drawn) [Compound 155],2
14,CC1OC(OC2C(Oc3c4cc5cc3Oc3ccc(cc3Cl)C(O)C3NC(=O)C(NC(=O)C5NC(=O)C(CC(N)=O)NC(=O)C(NC(=O)C=O)C(O)c5ccc(c(Cl)c5)O4)c4ccc(O)c(c4)-c4c(O)cc(O)cc4C(C(=O)O)NC3=O)OC(CO)C(O)C2O)CC(C)(NCc2ccc(-c3ccc(Cl)cc3)cc2)C1O (stereo not drawn) [Compound 159],2
15,CC1OC(OC2C(Oc3c4cc5cc3Oc3ccc(cc3Cl)[C@@H](O)[C@@H](NC(=O)CNC(=O)CNC(=O)CNC(=O)c3ccccc3)C(=O)N[C@@H](CC(N)=O)C(=O)N[C@H]5C(=O)NC3C(=O)N[C@H](C(=O)N[C@@H](C(=O)O)c5cc(O)cc(O)c5-c5cc3ccc5O)[C@H](O)c3ccc(c(Cl)c3)O4)OC(CO)C(O)C2O)CC(C)(NCc2ccc(-c3ccc(Cl)cc3)cc2)C1O (stereo partly drawn) [Compound 161],2
16,CC1OC(OC2C(Oc3c4cc5cc3Oc3ccc(cc3Cl)[C@@H](O)[C@@H](NC(=O)CNC(N)=O)C(=O)N[C@@H](CC(N)=O)C(=O)N[C@H]5C(=O)NC3C(=O)N[C@H](C(=O)N[C@@H](C(=O)O)c5cc(O)cc(O)c5-c5cc3ccc5O)[C@H](O)c3ccc(c(Cl)c3)O4)OC(CO)C(O)C2O)CC(C)(NCc2ccc(-c3ccc(Cl)cc3)cc2)C1O (stereo partly drawn) [Compound 162],2
17,CC1OC(OC2C(Oc3c4cc5cc3Oc3ccc(cc3Cl)[C@@H](O)[C@@H](NC(=O)[C@H](O)CCCNC(=N)N)C(=O)N[C@@H](CC(N)=O)C(=O)N[C@H]5C(=O)NC3C(=O)N[C@H](C(=O)N[C@@H](C(=O)O)c5cc(O)cc(O)c5-c5cc3ccc5O)[C@H](O)c3ccc(c(Cl)c3)O4)OC(CO)C(O)C2O)CC(C)(NCc2ccc(-c3ccc(Cl)cc3)cc2)C1O (stereo partly drawn) [Compound 165],2
18,CC1OC(OC2C(Oc3c4cc5cc3Oc3ccc(cc3Cl)[C@@H](O)[C@@H](NC(=O)[C@H]3CC(=O)NC(=O)N3)C(=O)N[C@@H](CC(N)=O)C(=O)N[C@H]5C(=O)NC3C(=O)N[C@H](C(=O)N[C@@H](C(=O)O)c5cc(O)cc(O)c5-c5cc3ccc5O)[C@H](O)c3ccc(c(Cl)c3)O4)OC(CO)C(O)C2O)CC(C)(NCc2ccc(-c3ccc(Cl)cc3)cc2)C1O (stereo partly drawn) [Compound 168],2
19,CC1OC(OC2C(Oc3c4cc5cc3Oc3ccc(cc3Cl)[C@@H](O)[C@@H](NC(=O)[C@@H]3CCC(=O)N3)C(=O)N[C@@H](CC(N)=O)C(=O)N[C@H]5C(=O)NC3C(=O)N[C@H](C(=O)N[C@@H](C(=O)O)c5cc(O)cc(O)c5-c5cc3ccc5O)[C@H](O)c3ccc(c(Cl)c3)O4)OC(CO)C(O)C2O)CC(C)(NCc2ccc(-c3ccc(Cl)cc3)cc2)C1O (stereo partly drawn) [Compound 169],2
20,CC1OC(OC2C(Oc3c4cc5cc3Oc3ccc(cc3Cl)[C@@H](O)[C@@H](NC(=O)CS(C)(=O)=O)C(=O)N[C@@H](CC(N)=O)C(=O)N[C@H]5C(=O)NC3C(=O)N[C@H](C(=O)N[C@@H](C(=O)O)c5cc(O)cc(O)c5-c5cc3ccc5O)[C@H](O)c3ccc(c(Cl)c3)O4)OC(CO)C(O)C2O)CC(C)(NCc2ccc(-c3ccc(Cl)cc3)cc2)C1O (stereo partly drawn) [Compound 171],2
21,CC(=O)CC(=O)NCC(=O)N[C@H]1C(=O)N[C@@H](CC(N)=O)C(=O)N[C@H]2C(=O)NC3C(=O)N[C@H](C(=O)N[C@@H](C(=O)O)c4cc(O)cc(O)c4-c4cc3ccc4O)[C@H](O)c3ccc(c(Cl)c3)Oc3cc2cc(c3OC2OC(CO)C(O)C(O)C2OC2CC(C)(NCc3ccc(-c4ccc(Cl)cc4)cc3)C(O)C(C)O2)Oc2ccc(cc2Cl)[C@H]1O (stereo partly drawn) [Compound 172],2
22,CC(=O)NCC(=O)N[C@H]1C(=O)N[C@@H](CC(N)=O)C(=O)N[C@H]2C(=O)NC3C(=O)N[C@H](C(=O)N[C@@H](C(=O)O)c4cc(O)cc(O)c4-c4cc3ccc4O)[C@H](O)c3ccc(c(Cl)c3)Oc3cc2cc(c3OC2OC(CO)C(O)C(O)C2OC2CC(C)(NCc3ccc(-c4ccc(Cl)cc4)cc3)C(O)C(C)O2)Oc2ccc(cc2Cl)[C@H]1O (stereo partly drawn) [Compound 179],2
23,CC(=O)NC(CCCNC(=N)N)C(=O)NC1C(=O)NC(CC(N)=O)C(=O)NC2C(=O)NC3C(=O)NC(C(=O)NC(C(=O)O)c4cc(O)cc(O)c4-c4cc3ccc4O)C(O)c3ccc(c(Cl)c3)Oc3cc2cc(c3OC2OC(CO)C(O)C(O)C2OC2CC(C)(NCc3ccc(-c4ccc(Cl)cc4)cc3)C(O)C(C)O2)Oc2ccc(cc2Cl)C1O (stereo not drawn) [Compound 184],2
24,CC1OC(OC2C(Oc3c4cc5cc3Oc3ccc(cc3Cl)C(O)C3NC(=O)C(NC(=O)C5NC(=O)C(CC(N)=O)NC(=O)C(NC(=O)C(Cc5c[nH]cn5)NC(N)=O)C(O)c5ccc(c(Cl)c5)O4)c4ccc(O)c(c4)-c4c(O)cc(O)cc4C(C(=O)O)NC3=O)OC(CO)C(O)C2O)CC(C)(NCc2ccc(-c3ccc(Cl)cc3)cc2)C1O (stereo not drawn) [Compound 192],2
